Values of other authors in EP1911850A1, “Method of producing 6-thio-sialylated glycoproteins and glycoconjugates” (CENTRE NATIONAL DE LA RECHERCHE SCIENTIFIQUE (CNRS), priority 2006, dated 2008).

Test system: a galactosidase
Conditions: background statement; comparator not stated

SMILES: CC(=O)N[C@H]1C(O)O[C@H](CO)[C@@H](O[C@@H]2S[C@H](CO)[C@H](O)[C@H](O)[C@H]2O)[C@@H]1O (stereo partly shown) [5'-Thio-N-acetyllactosamine]
- increased stability to digestion by a galactosidase: 200 fold
